Measurements reported in ChEMBL document CHEMBL1177789, “Inhibitors for expression of IgE receptor on human mast cell from Puerariae Flos” (Bioorg Med Chem Lett, 2010).
Active and inactive are the calls of the source. No cut-off for these calls is given here.

Tests used:
HMC1 [1] = assay: Antiallergic activity in human HMC1 cells assessed as inhibition of IgE […] receptor mRNA expression after 72 hrs by RT-PCR; format: functional, cell-based
[2] = Cytotoxicity against human HMC1 cells at 50 uM after 72 hrs; format: cell-based; settings: hmc1, 72 h
HMC1 [3] = assay: Antiallergic activity in human HMC1 cells assessed as inhibition of IgE […] receptor expression after 72 hrs by flow cytometry; format: functional, cell-based

Row | Compound | inhibition (HMC1 [1]) | Activity [2] | inhibition (HMC1 [3])
1 | COc1c(O)cc2occ(-c3ccc(O)cc3)c(=O)c2c1O | Active | – | –
2 | COc1cc2occ(-c3ccc(O)cc3)c(=O)c2cc1OC | – | Non-toxic | Active
